In patent US11612595B2, “Compositions and methods for treating rheumatoid arthritis” (Generos Biopharma Ltd., priority 2017, dated 2023):

Experiments:
STAT5b SH2 domain = target: T1, STAT5b SH2 domain (Homo sapiens, UniProt P51692); conditions: read-out: IC50 against STAT5b SH2 domain EPO peptide binding activity; cited from earlier work
T1 sequence (P51692 1-787): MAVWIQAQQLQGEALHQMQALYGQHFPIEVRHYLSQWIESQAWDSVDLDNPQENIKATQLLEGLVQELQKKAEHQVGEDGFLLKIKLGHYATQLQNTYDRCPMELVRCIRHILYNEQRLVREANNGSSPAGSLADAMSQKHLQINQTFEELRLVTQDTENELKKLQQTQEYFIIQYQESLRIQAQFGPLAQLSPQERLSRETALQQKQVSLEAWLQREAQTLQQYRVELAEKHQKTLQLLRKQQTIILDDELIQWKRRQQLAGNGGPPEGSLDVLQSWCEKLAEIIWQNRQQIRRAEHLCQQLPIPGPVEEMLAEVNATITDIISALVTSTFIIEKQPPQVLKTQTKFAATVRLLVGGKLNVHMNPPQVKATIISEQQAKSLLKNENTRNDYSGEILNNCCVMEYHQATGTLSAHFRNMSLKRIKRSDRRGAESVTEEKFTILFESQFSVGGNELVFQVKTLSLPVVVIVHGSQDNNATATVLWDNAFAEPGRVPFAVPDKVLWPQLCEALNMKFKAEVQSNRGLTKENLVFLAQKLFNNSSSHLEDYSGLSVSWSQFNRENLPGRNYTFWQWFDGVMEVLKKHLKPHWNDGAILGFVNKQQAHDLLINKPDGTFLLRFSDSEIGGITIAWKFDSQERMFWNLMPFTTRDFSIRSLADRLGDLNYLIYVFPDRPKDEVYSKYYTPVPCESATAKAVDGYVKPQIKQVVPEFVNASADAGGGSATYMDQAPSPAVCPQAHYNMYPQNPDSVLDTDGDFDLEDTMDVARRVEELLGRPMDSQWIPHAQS

STAT3 = STAT3 (Homo sapiens, UniProt P40763); conditions: Daudi cells; cited from earlier work
STAT3, sequence (P40763 whole entry): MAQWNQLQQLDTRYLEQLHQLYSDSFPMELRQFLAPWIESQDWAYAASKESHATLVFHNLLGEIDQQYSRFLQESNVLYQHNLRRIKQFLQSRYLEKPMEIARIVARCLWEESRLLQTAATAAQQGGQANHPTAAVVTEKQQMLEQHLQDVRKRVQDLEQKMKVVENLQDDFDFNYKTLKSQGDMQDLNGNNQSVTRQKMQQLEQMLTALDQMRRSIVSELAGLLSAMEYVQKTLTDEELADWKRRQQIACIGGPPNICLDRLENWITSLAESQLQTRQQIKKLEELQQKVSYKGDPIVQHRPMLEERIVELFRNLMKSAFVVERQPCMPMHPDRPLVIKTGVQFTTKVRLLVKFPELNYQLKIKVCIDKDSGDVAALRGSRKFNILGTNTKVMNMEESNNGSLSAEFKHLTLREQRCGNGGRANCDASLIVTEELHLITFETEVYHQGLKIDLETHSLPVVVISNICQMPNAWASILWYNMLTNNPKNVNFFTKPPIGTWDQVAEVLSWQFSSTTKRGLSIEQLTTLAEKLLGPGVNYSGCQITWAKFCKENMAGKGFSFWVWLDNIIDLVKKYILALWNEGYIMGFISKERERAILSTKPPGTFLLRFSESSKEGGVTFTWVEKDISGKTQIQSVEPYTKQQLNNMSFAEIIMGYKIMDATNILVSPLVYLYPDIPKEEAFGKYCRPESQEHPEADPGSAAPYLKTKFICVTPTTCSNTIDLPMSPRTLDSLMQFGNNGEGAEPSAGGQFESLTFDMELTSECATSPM

STAT5 = target: T2, STAT5 (Homo sapiens, UniProt P42229+P51692); design: endogenous in cells; conditions: Daudi cells; cited from earlier work
T2 sequence (P42229 1-794): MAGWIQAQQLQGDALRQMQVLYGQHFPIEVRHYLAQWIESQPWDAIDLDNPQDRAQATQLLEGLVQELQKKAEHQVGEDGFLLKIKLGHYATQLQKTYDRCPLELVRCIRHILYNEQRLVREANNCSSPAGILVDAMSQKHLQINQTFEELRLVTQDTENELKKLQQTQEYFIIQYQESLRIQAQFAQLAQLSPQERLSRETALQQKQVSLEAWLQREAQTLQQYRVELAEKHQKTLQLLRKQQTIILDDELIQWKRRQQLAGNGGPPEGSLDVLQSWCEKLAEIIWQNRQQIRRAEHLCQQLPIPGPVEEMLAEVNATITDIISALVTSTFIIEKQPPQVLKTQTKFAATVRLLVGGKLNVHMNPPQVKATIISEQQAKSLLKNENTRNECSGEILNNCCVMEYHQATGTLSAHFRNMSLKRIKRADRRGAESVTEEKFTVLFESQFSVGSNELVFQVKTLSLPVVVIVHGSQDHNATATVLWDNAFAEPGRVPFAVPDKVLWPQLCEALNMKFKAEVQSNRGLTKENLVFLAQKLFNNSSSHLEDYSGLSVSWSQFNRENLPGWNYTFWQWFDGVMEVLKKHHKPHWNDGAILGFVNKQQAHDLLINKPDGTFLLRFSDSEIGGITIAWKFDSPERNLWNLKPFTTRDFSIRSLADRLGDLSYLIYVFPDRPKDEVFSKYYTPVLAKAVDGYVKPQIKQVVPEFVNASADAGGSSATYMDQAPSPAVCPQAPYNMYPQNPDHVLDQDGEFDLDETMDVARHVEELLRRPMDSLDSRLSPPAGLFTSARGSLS
T2 sequence (P51692 1-787): T1 sequence (P51692 1-787)

[1] = tested on: adjuvant-induced arthritis (AIA) rat model; assay: AIA rat model, paw volume and clinical scores; format: in vivo, rats
Method: FIG. 3 is a graph illustrating the treatment scheme in an adjuvant-induced arthritis (AIA) rat model. In the prophylactic group, treatment starts from day 0 and administered every other day. In the therapeutic group, treatment starts from day 13 and was administered every other day.
(§1) Three groups (10 rats in each group) of female rats (age 8 weeks) were subject to AIA model induction and then to different treatment schemes. Specifically, 100 ug mBSA mixed with CFA was injected s.c. to flank near tail, and one dose of B. pertusiss was injected i.p. the next day to boost the immune reaction. The first of the three groups of rats were treated with DMSO (Vehicle). The second of the three groups of rats were treated with pimozide (Sigma-Aldrich) 10 mg/kg of body weight (same unit are used throughout this application) in 30% PEG300 solution via intraperitoneal injection with collagen injection starting from day 7 (Therapeutic). The last of the three groups of rats were treated with pimozide (Sigma-Aldrich) 10 mg/kg in 30% PEG300 solution via intraperitoneal injection either with collagen injection starting from day 0. As a control, a fourth group of female rats (5 rats) were spared the AIA model induction and were not treated. The inventors collected data of the weight, paw volume, and clinical scores every three days and performed statistic analysis.
The clinical scores were derived according to the scheme in Table 1.
The method used in the statistic analysis was Student's t test, unpaired, two-tailed analysis.

[2] = weight changes in rat AIA model; format: in vivo, rats
Method: FIG. 4 is a graph depicting weight changes in four groups of rat AIA models under different treatment schemes. Vehicle refers to the group of AIA model rats treated with DMSO. Therapeutic refers to the group of AIA model rats treated with pimozide (Sigma-Aldrich) 10 mg/kg in 30% PEG300 solution starting from day 13. Prophylactic refers to the group of AIA model rats treated with pimozide (Sigma-Aldrich) 10 mg/kg in 30% PEG300 solution starting from day 0. Normal refers to the group of rats without AIA model inducement.
as §1, with “As a control, a fourth group of female rats (5 rats) were spared the AIA model induction and were not treated. The inventors collected data of the weight, paw volume, and clinical scores every three days and performed statistic analysis.” left out

[3] = tested on: Chronic Myeloid Leukemia (CML) cell lines; conditions: cited from earlier work
[4] = Prophylactic group, 10 mg/kg i.p. from day 0, starting from day 13
[5] = Therapeutic group, 10 mg/kg i.p., starting from day 17

| SMILES | IC50 (STAT5b SH2 domain) [µM] | IFN-α-stimulated STAT3 tyrosine phosphorylation (STAT3) | IFN-α-stimulated STAT5 tyrosine phosphorylation (STAT5) | clinical score vs Vehicle group [1, 4] | paw volume vs Vehicle group [1, 4] | clinical score vs Vehicle group [1, 5] | paw volume vs Vehicle group [1, 5] | weight changes vs Vehicle ([2]; Prophylactic group, 10 mg/kg i.p. from day 0, at each time point) | weight changes vs Vehicle ([2]; Therapeutic group, 10 mg/kg i.p., at each time point) | cell cycle arrest and apoptosis [3] |
| --- | --- | --- | --- | --- | --- | --- | --- | --- | --- | --- |
| O=C(N/N=C/c1coc2ccccc2c1=O)c1cccnc1 [nicotinohydrazide, N′-((4-Oxo-4H-chromen-3-yl)methylene)nicotinohydrazide] | 47 | not | inhibit |  |  |  |  |  |  |  |
| O=c1[nH]c2ccccc2n1C1CCN(CCCC(c2ccc(F)cc2)c2ccc(F)cc2)CC1 [pimozide, 1-[1-[4,4-bis(4-fluorophenyl)butyl]-4-piperidinyl]-1,3-dihydro-2H-benzimidazole-2-one] |  |  |  | significantly decreased | significantly decreased | significantly decreased | significantly decreased | No significant difference | No significant difference | induces |
